Residues, ends and D or L forms follow the SMILES beside them.

System in the first experiment: not listed separately
Description: Adrenal weight in corticosterone-administered rats. Format: in vivo, Wistar rats. To be noted: repeated administration of corticosterone.
In the case of `C[C@]12C[C@H](O)[C@H]3[C@@H](CCC4=CC(=O)CC[C@@]43C)[C@@H]1CC[C@@H]2C(=O)CO` [corticosterone], the adrenal weight result was “decreased the adrenal weight”.

The target of a further experiment is GS (sheep brain).
Assay: not given
The settings on record: cited from earlier work.
As to `NC1(C(=O)O)CCCC(P(=O)(O)O)C1` (stereo not shown) [Cyclohexane phosphinothricin, 1-Amino-3-phosphono-cyclohexane-carboxylic acid], the Ki is 125 µM.
Turning to `CC(CC(N)C(=O)O)P(C)(=O)O` (stereo not shown) [Gamma methyl phosphinothricin], the Ki is 407 µM.
Take `CP(=O)(O)C(O)CC(N)C(=O)O` (stereo not shown) [Gamma-hydroxy phosphinothricin]: the Ki is 47 µM.
Take `CCC(N)(CCP(C)(=O)O)C(=O)O` (stereo not drawn) [Alpha-ethyl phosphinothricin]: the Ki is 111 µM.
Regarding `CC(N)(CCP(C)(=O)O)C(=O)O` (stereo not drawn) [Alpha-methyl phosphinothricin], the Ki was 125 µM.

Another experiment relates to purified sheep brain GS. Description: Purified sheep brain GS activity (Meister's method, gamma-glutamylhydroxamate formation). Format: biochemical.
Settings: not given
For the molecule `NNC(=O)c1ccncc1` [isoniazid, Isoniazid], the “tested on GS activity: ligand or not” value is given as “GS ligands”.

Another experiment relates to GS.
Assay: not given
To be noted: cited from earlier work.
Take `N[C@@H](CC[S+]([O-])CP(=O)(O)O)C(=O)O` (stereo partly shown) [s-Phosphonomethyl homocysteine sulfoxide]: the “GS inhibition in words” value is reported as “Synthetic inhibitor Logusch et al., 1988 Eisenberg et at., 2000”.
For `N[C@@H](CCS(=O)(=O)CP(=O)(O)O)C(=O)O` [s-Phosphonomethyl homocysteine sulfone], the Ki is 1.4 mM.
For `C[C@@](N)(CCS(C)(=N)=O)C(=O)O` (stereo partly drawn) [Alpha-methyl methionine sulfoximine], the “GS inhibition in words” value is given as “Slightly less inhibitory synthetic MS derivative Eisenberg et al., 2000”.
For the molecule `CS(=O)(=O)CC[C@H](N)C(=O)O` [Methionine sulfone], the “GS inhibition in words” value was “Very potent ATP-dependent inhibitor of GS activity in a number of species. First discovered in nitrogen chloride treated zein. Eisenberg et al., 2000”.

The test system of another experiment is glutamate metabotropic receptor.
Assay: not given
To be noted: cited from earlier work.
On to `N[C@@H](C[C@H](CCCC(c1ccccc1)c1ccccc1)C(=O)O)C(=O)O` [(4S)-4-(4,4-Diphenylbutyl)-L-glutamic acid], for which the “activity at glutamate metabotropic receptors in words” value (“activity … in words” below) was “Selective and competitive mGlu2 glutamate metabotropic receptor antagonist Wermuth et al., 1996”.
“(2S,3S,4S)-2-Methyl-2-(carboxycyclopropyl)glycine”: the “activity … in words” value is on record as “mGlu2 glutamate metabotropic receptor antagonist Jane et al., 1994”.
In the case of `CC(=O)N[C@@H](CC(=O)O)C(=O)N[C@@H](CCC(=O)O)C(=O)O` [N-Acetyl-L-aspartyl-L-glutamic acid] (Ac-Asp-Glu-OH), the “activity … in words” value is given as “Highly selective mGlu3 glutamate metabotropic receptor agonist Morris et al., 1965”.
In the case of `N[C@@]1(C(=O)O)CC[C@H](C(=O)O)C1` [1-Aminocyclopentane-cis-1,3-dicarboxylic acid], the “activity … in words” value was “Group I/II glutamate metabotropic receptor agonist Olverman et al., 1983”.
With `NC(C(=O)O)c1cc(O)cc(O)c1` (racemic) [(RS)-3,5-Dihydroxyphenylglycine], the “activity … in words” value is “Group I selective glutamate metabotropic receptor agonist (activates mGlu1 and mGlu5) Schoepp et al., 1994”.
As for `C[C@@](N)(CCP(=O)(O)O)C(=O)O` [2-Amino-2-methyl-4-phosphono-butyric acid], the “activity … in words” value was “Selective mGlu3 glutamate metabotropic receptor antagonist Sekiyama et al., 1996”.
For the molecule `CC1(/C=C/c2ccccc2)C=CC=CN1` (stereo not shown) [2-Methyl-2-(phenylethenyl)pyridine], the “activity … in words” value is on record as “Selective mGlu5 glutamate metabotropic receptor antagonist Varney et al., 1999”.
Take `Cc1ccc(O)c(/N=N/c2ccccc2)n1` [6-Methyl-2-(phenylazo)-3-pyridinol]: the “activity … in words” value is recorded as “Selective mGlu5 glutamate metabotropic receptor antagonist Varney et al., 1999”.
Turning to `O=C(O)[C@@H]1C[C@@H](C(=O)O)N1` (relative stereo) [Trans-Azetidine-2,4-dicarboxylic acid], the “activity … in words” value was “Group I selective glutamate metabotropic receptor agonist. (activates mGlu1 and mGlu5) Kozikowski et al., 1993”.
Consider `N[C@]1(C(=O)O)CCc2cc(C(=O)O)ccc21` (racemic) [(RS)-1-Aminoindan-1,5-dicarboxylic acid], for which the “activity … in words” value is “mGlu1 glutamate metabotropic receptor antagonist Pellicciari et al.,1995”.
Take `N[C@H](C(=O)O)c1cc(=O)[nH]o1` [Ibotenic acid]: the “activity … in words” value is “Glutamate metabotropic receptor agonist Johnston, 1968”.
Consider `N[C@](CC1c2ccccc2Oc2ccccc21)(C(=O)O)[C@H]1C[C@@H]1C(=O)O` [(2S)-2-Amino-2-[(1S,2S)-2-carboxycycloprop-1-yl]-3-(xanth-9-yl) propanoic acid], for which the “activity … in words” value is “Highly potent mGlu2 glutamate metabotropic receptor antagonist Ornstein et al., 1998”.
Consider `NC(C(=O)O)c1cccc(O)c1` (racemic) [(RS)-3-Hydroxyphenylglycine], for which the “activity … in words” value was “Glutamate metabotropic receptor agonist Thomsen and Suzdak, 1993”.
`N[C@H](C(=O)O)[C@@H]1[C@@H](C(=O)O)C1(F)F` [(2S,1′S,2′S)-2-(2′-Carboxy-3′,3′-difluorocyclopropyl)glycine]: the “activity … in words” value is recorded as “Glutamate metabotropic receptor agonist Shinozaki et al., 1996”.
In the case of `Cc1cc(C(=O)O)ccc1[C@H](N)C(=O)O` [(S)-(+)-Amino-4-carboxy-2-methylbenzeneacetic acid], the “activity … in words” value is on record as “Selective mGlu1a glutamate metabotropic receptor antagonist Clarke et al., 1997”.
With `N[C@@H](CSS(=O)(=O)[O-])C(=O)O.[Na+]` [S-Sulfo-L-cysteine sodium salt], the “activity … in words” value is “mGlu1a and mGlu5a glutamate metabotropic receptor agonist Mewett et al., 1983”.

For the next experiment, the target named is GS (rat liver) (Rattus norvegicus, UniProt P09606).
Sequence of GS (rat liver) (P09606 2-373 limits assumed): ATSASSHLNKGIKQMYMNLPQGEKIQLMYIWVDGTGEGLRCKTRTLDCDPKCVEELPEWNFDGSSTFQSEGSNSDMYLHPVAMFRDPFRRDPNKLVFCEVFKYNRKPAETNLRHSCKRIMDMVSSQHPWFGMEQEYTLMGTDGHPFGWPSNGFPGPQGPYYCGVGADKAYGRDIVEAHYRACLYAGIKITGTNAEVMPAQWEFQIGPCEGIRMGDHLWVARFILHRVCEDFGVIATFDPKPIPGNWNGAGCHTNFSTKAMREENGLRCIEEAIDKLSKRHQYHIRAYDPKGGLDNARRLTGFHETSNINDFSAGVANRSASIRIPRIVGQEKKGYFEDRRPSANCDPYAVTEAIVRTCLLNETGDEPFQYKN
Assay: not given
To be noted: cited from earlier work.
For the molecule `NC(CCP(=O)(O)O)C(=O)O` (stereo not shown) [2-Amino-4-phosphono butanoic acid], the Ki was 0.88 mM.
Consider `CP(=O)(O)C(N)CCC(=O)O` (stereo not shown) [4-Amino-4-(hydroxymethylphosphinyl) butanoic acid], for which the Ki is 0.8 mM.
Turning to `NC(CCC(=O)O)P(=O)(O)O` (stereo not shown) [4-Amino-4-phosphono butanoic acid], the Ki was 1.3 mM.
On to `COC(=O)CCC(N)P(=O)(O)O` (stereo not shown) [Methyl 4-amino-4-phosphono butanate], for which the inhibitory constant (Ki) was 2.1 mM.
In the case of `COC(=O)C(CCP(=O)(O)O)C(=O)O` (stereo not shown) [2-Methoxycarbonyl-4-phosphono butanoic acid], the Ki was 8.7 mM.
As to `CC(N)(CCP(=O)(O)O)C(=O)O` (stereo not shown) [2-Amino-2-methyl-4-phosphono butanoic acid], the inhibition constant Ki is 6.3 mM.

The experiment is the same for the next values; noted with them: read-out: Ki; cited from earlier work.
Turning to `CC(N)(CCC(=O)O)[PH](=O)CO` (stereo not shown) [4-Amino-4-(hydroxymethylphosphinyl)-4-methyl butanoic acid], the Ki was 9.5 mM.

(Values after US20090209474A1, “NOVEL USES FOR DRUGS TARGETING GLUTAMINE SYNTHETASE” (NEWTHERA, priority 2005, published 2009).)
